Source: patent US11066389B2, “Process for the manufacturing of medicaments” (Genentech, Inc., priority 2014, dated 2021)

What was measured:
Assay type in all cases: physicochemical
[1] = pKa determination of the free base (salt screen)
Description: A salt screen was conducted to determine if a suitable salt form could be discovered. The pKa of the free base was determined to be less than 2, which limited the range of possible salt coformers. In addition, salts derived from (S)-1-(1-(4-chloro-3-fluorophenyl)-2-hydroxyethyl)-4-(2-((1-methyl-1H-pyrazol-5-yl)amino)pyrimidin-4-yl)pyridin-2(1H)-one free base would have a pHmax less than 2 and would be expected to disproportionate in water. Thus, it was not clear that a crystalline salt could be prepared or that any salt would have acceptable exposure in vivo (an aqueous environment). […] Eventually crystalline salts were obtained from 1,5-naphthalenedisulfonic acid, p-toluenesulfonic acid and benzenesulfonic acid.

[2] = Solid-form stability against disproportionation in the presence of water; details: compared to the tosylate and naphthalenesulfonic acid salt forms
[3] = Hygroscopicity, automated vapor sorption (DVS); details: salt form; lower than the tosylate and 1,5-naphthalenedisulfonic acid salt forms; vapor sorption at 25° C., 5 to 95% RH
Description: Automated vapor sorption data were collected on a TA Instruments Q5000SA vapor sorption analyzer. NaCl and PVP were used as calibration standards. Samples were not dried prior to analysis. Adsorption and desorption data were collected at 25° C. over a range from 5 to 95% RH at 10% RH increments under a nitrogen purge. Samples were held at the corresponding RH for 1 hour prior to moving to the next RH range. Data were not corrected for the initial moisture content of the samples.

**Q.** With `Cn1nccc1Nc1nccc(-c2ccn([C@H](CO)c3ccc(Cl)c(F)c3)c(=O)c2)n1` [VIII, (S)-1-(1-(4-chloro-3-fluorophenyl)-2-hydroxyethyl)-4-(2-(1-methyl-1H-pyrazol-5-ylamino)pyrimidin-4-yl)pyridin-2(1H)-one] as the molecule, how does the pKa [1] read?
**A.** < 2

**Q.** And the “pKa of the free base” value [1]?
**A.** less than 1.8

**Q.** With `Cn1nccc1Nc1nccc(-c2ccn([C@H](CO)c3ccc(Cl)c(F)c3)c(=O)c2)n1.O=S(=O)(O)c1ccccc1` [besylate salt, (S)-1-(1-(4-Chloro-3-fluorophenyl)-2-hydroxyethyl)-4-(2-((1-methyl-1H-pyrazol-5-yl)amino)pyrimidin-4-yl)pyridin-2(1H)-one, Benzenesulfonate Salt] as the molecule, how does the stability [2] read?
**A.** enhanced stability

**Q.** And the hygroscopicity [3]?
**A.** non-hygroscopicity
